From US12258326B2, “Pyrazole derivative and harmful organism-controlling agent” (KUMIAI CHEMICAL INDUSTRY CO., LTD., priority 2018, dated 2025)
Read-outs that look alike come from different tables or passages of the source.

Experiments:
Type in all cases: in vivo
[1] = system: Aphis gossypii; assay: Aphis gossypii killing test; settings: read-out: insect mortality
Description: The water-dispersible powder prepared in accordance with Formulation example 2 was diluted in water so that the concentration of the active ingredient was 500 ppm. A nursery plant of cucumber preliminarily inoculated with nymphs of Aphis gossypii was dipped in this liquid agent, and air-dried. The nursery plant of cucumber after the treatment was placed in a thermostatic chamber at 25° C., and the number of live insects was counted after 3 days, and the insect mortality was determined by the calculation formula of numerical formula 1. The test was conducted singly.

[2] = system: Plutella xylostella; assay: Plutella xylostella killing test; settings: 144 h, active ingredient 500 ppm, dipped cabbage leaf, second instar larvae, after 6 days, 25° C., read-out: insect mortality
Description: (§1) The water-dispersible powder prepared in accordance with Formulation example 2 was diluted in water so that the concentration of the active ingredient was 500 ppm. A cabbage leaf was dipped in this liquid agent, and air-dried, and then put into a plastic cup. Ten second instar larvae of Plutella xylostella were released in the cup, and the cup was lidded. Then, the cup was placed in a thermostatic chamber at 25° C., and the number of dead insects was examined after 6 days, and the insect mortality was determined by the calculation formula of numerical formula 1. The test was conducted singly.

[3] = system: Helicoverpa armigera; assay: Helicoverpa armigera killing test; settings: 144 h, active ingredient 500 ppm, dipped cabbage leaf, newly hatched larvae, after 6 days, 25° C., read-out: insect mortality
Description: as §1, with “Five newly hatched” for “Ten second instar”, “Helicoverpa armigera” for “Plutella xylostella”, “in duplicate.” for “singly.”

[4] = system: Nilaparvata lugens; assay: Nilaparvata lugens killing activity test; settings: 144 h, active ingredient 500 ppm, dipped paddy, second instar larvae, after 6 days, 25° C., read-out: insect mortality
Description: The water-dispersible powder prepared in accordance with Formulation example 2 was diluted in water so that the concentration of the active ingredient was 500 ppm. Paddy was dipped in this liquid agent, and then put into a plastic cup. Ten second instar larvae of Nilaparvata lugens were released in the plastic cup, and the cup was lidded, and placed in a thermostatic chamber at 25° C. After 6 days, the number of live insects was counted, and the insect mortality was determined by the calculation formula of numerical formula 1. The test was conducted singly.

[5] = active ingredient 500 ppm, dipped cucumber nursery plant inoculated with nymphs, after 3 days, 25° C.

Structure (SMILES)	mortality at 500 ppm [1, 5]	mortality at 500 ppm [2]	mortality at 500 ppm [3]	mortality at 500 ppm [4]	mortality at 500 ppm ([1]; in Cucumis sativus)
COc1cc(Cl)ccc1-c1cn(-c2cccnc2)nc1C(N)=O [A-0634, 4-(4-chloro-2-methoxyphenyl)-1-(pyridine-3-yl)-1H-pyrazole-3-carboxamide]	≥ 50%	≥ 50%	≥ 50%	≥ 50%	–
Cc1cccnc1-c1cn(-c2cccnc2)nc1C(N)=O [B-0027, 4-(3-methylpyridine-2-yl)-1-(pyridine-3-yl)-1H-pyrazole-3-carboxamide]	≥ 50%	≥ 50%	≥ 50%	≥ 50%	–
Cc1ccccc1-c1cn(-c2ccc[n+]([O-])c2)nc1C(N)=O [A-8862, 3-[3-carbamoyl-4-(2-methylphenyl)-1H-pyrazole-1-yl]pyridine-1-oxide]	≥ 50%	–	–	≥ 50%	–
Cc1ccccc1-c1cn(-c2cccnc2)nc1C(N)=S [A-8646, 1-(pyridine-3-yl)-4-(2-methylphenyl)-1H-pyrazole-3-carbothioamide]	–	≥ 50%	–	≥ 50%	–
CCOC(=O)c1nn(-c2cccnc2)cc1-c1cnccc1C [D-0108, Ethyl 4-(4-methylpyridine-3-yl)-1-(pyridine-3-yl)-1H-pyrazole-3-carboxylate]	≥ 50%	≥ 50%	≥ 50%	–	–
COCC(=O)NC(=O)c1nn(-c2cccnc2)cc1-c1ccccc1C [A-4808, N-(2-methoxyacetyl)-1-(pyridine-3-yl)-4-(2-methylphenyl)-1H-pyrazole-3-carboxamide]	≥ 50%	–	–	≥ 50%	–
Cc1ccncc1-c1cn(-c2cccnc2)nc1C(N)=O [B-0100, 4-(4-methylpyridine-3-yl)-1-(pyridine-3-yl)-1H-pyrazole-3-carboxamide]	–	≥ 50%	≥ 50%	≥ 50%	–
CCOC(=O)c1nn(-c2cccnc2)cc1-c1ncccc1C [D-0035, Ethyl 4-(3-methylpyridine-2-yl)-1-(pyridine-3-yl)-1H-pyrazole-3-carboxylate]	≥ 50%	≥ 50%	≥ 50%	≥ 50%	–
CCOC(=O)c1nn(-c2cccnc2)cc1-c1ccc(Cl)cc1OC [C-0634, Ethyl 4-(4-chloro-2-methoxyphenyl)-1-(pyridine-3-yl)-1H-pyrazole-3-carboxylate]	–	≥ 50%	–	–	–
Cc1ccccc1-c1cn(-c2cccnc2)nc1C(N)=O [A-0020, 1-(pyridine-3-yl)-4-(2-methylphenyl)-1H-pyrazole-3-carboxamide]	≥ 50%	≥ 50%	≥ 50%	≥ 50%	–
CCOC(=O)c1nn(-c2cccnc2)cc1-c1ccccc1C(F)(F)F [C-0044, Ethyl 1-(pyridine-3-yl)-4-(2-(trifluoromethyl)phenyl)-1H-pyrazole-3-carboxylate]	≥ 50%	–	–	≥ 50%	–
NC(=O)c1nn(-c2cccnc2)cc1-c1ccccc1C(F)(F)F [A-0044, 1-(pyridine-3-yl)-4-[2-(trifluoromethyl)phenyl]-1H-pyrazole-3-carboxamide]	≥ 50%	–	–	–	–
CCOC(=O)c1nn(-c2cccnc2)cc1OS(=O)(=O)C(F)(F)C(F)(F)C(F)(F)C(F)(F)F [D-0008, Ethyl 4-{[(nonafluorobutyl)sulfonyl]oxy}-1-(pyridine-3-yl)-1H-pyrazole-3-carboxylate]	–	–	–	–	≥ 50%
CCOC(=O)c1nn(-c2cccnc2)cc1I [D-0003, ethyl 4-iodo-1-(pyridine-3-yl)-1H-pyrazole-3-carboxylate]	≥ 50%	–	≥ 50%	–	–
Cc1ccncc1-c1cn(-c2cccnc2)nc1C(=O)O [F-0108, 4-(4-methylpyridine-3-yl)-1-(pyridine-3-yl)-1H-pyrazole-3-carboxylic acid]	–	≥ 50%	≥ 50%	–	–
